Patent publication US20260022142A1, “MACROCYCLIC IMMUNOMODULATORS” (Bristol-Myers Squibb Company, priority 2022, published 2026)
Numbered stars: 1 amine (or outer) side, 2 acyl side, 3 side chain; on linkers, the order of the positions; unused ones are H or OH. Bridge positions count the residues as written; N and C are the ends. Square brackets hold non-standard residues; d marks the D form. Peptide text beside a SMILES is read from it. * marks the point of attachment. ξ: configuration not given here. Phe(3-CF3) = N[C@@H](Cc1cccc(C(F)(F)F)c1)C(=O)O; Phe(4-CONH2) = NC(=O)c1ccc(C[C@H](N)C(=O)O)cc1; Phe(4-COOH) = N[C@@H](Cc1ccc(C(=O)O)cc1)C(=O)O; Bip = N[C@@H](Cc1ccc(-c2ccccc2)cc1)C(=O)O; Phe(3-Me) = Cc1cccc(C[C@H](N)C(=O)O)c1; X5 = CC(C)(CCN)[C@H](N[*:1])C(=O)[*:2]; NH(CH2)12COOH = O=C(O)CCCCCCCCCCCCN*; Val(3-OH) = CC(C)(O)[C@H](N)C(=O)O; 4Pal = N[C@@H](Cc1ccncc1)C(=O)O; Cha = N[C@@H](CC1CCCCC1)C(=O)O; Cit = NC(=O)NCCC[C@H](N)C(=O)O; Thr(3ξ) = CC(O)[C@H](N)C(=O)O; PEG4 = NCCOCCOCCOCCOCCC(=O)O; Carboxymethyl = O=C(O)C*; Orn = NCCC[C@H](N)C(=O)O; Pra = C#CC[C@H](N)C(=O)O; Aun = NCCCCCCCCCCC(=O)O; Dab = NCC[C@H](N)C(=O)O; Dap = NC[C@H](N)C(=O)O; AEEA = NCCOCCOCC(=O)O; ξV = CC(C)C(N)C(=O)O

biological target: T1, PD-1/PD-L1 interaction (PE-labeled human PD-L1-Ig binding to Jurkat cell line over-expressing human PD-1) (Homo sapiens, UniProt Q15116); experiment: Jurkat-PD-1 Cell Binding High-Content Screening Assay (CBA); assay type: cell-based; settings: Jurkat cell line over-expressing human PD-1; PE-labeled PD-L1-Ig 20 nM final; read-out: Jurkat hPD1-PDL1 IC50
T1 construct: expressed in transfected cells; host or cells: Jurkat
In short: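 First, compound is added to PD-1-expressing Jurkat cells in serum-containing DMEM and left 2 h at 37° C. Next, PE-conjugated PD-L1-Ig is introduced at 20 nM final concentration for 1 hour. Finally, cells are fixed in 4% paraformaldehyde with Hoechst 33342, washed and imaged.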

T1 sequence (Q15116 25-288): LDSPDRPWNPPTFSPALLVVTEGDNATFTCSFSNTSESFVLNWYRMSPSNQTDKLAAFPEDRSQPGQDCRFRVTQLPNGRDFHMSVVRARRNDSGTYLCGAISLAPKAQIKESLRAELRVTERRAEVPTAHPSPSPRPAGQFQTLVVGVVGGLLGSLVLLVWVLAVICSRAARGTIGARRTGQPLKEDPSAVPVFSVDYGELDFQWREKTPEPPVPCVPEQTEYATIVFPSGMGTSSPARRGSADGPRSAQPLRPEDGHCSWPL

SMILES | IC50 [nM]
Cc1cccc(C[C@@H]2NC(=O)[C@H](CC(=O)O)NC(=O)[C@H](Cc3ccc(OCC(=O)O)cc3)NC(=O)[C@H](CN)NC(=O)CSC[C@@H](C(=O)N[C@@H](CCCN)C(=O)NCCCCCCCCCCC(=O)O)NC(=O)[C@H](CCC(N)=O)NC(=O)[C@H](C(C)C)NC(=O)[C@H](CC3CCCCC3)NC(=O)[C@H](CCN)NC(=O)[C@@H](CC(C)C)NC(=O)[C@H](CCN)NC(=O)[C@H](Cc3ccc(OCC(=O)O)cc3)NC(=O)[C@H](Cc3ccc(-c4ccccc4)cc3)NC(=O)[C@H](Cc3ccc(OCC(=O)O)cc3)NC2=O)c1 [Compound 2857] ({CH2CO}-[Dap]Y(Carboxymethyl)D[Phe(3-Me)]Y(Carboxymethyl)[Bip]Y(Carboxymethyl)[Dab][dL][Dab][Cha]VQC[Orn][Aun]-OH; thioether N-14) | 35
Cc1cccc(C[C@@H]2NC(=O)[C@H](CC(=O)O)NC(=O)[C@H](Cc3ccc(OCC(=O)O)cc3)NC(=O)[C@H](CCCNC(=N)N)NC(=O)CSC[C@@H](C(=O)N[C@@H](CCN)C(=O)NCCCCCCCCCCC(=O)O)NC(=O)[C@H]([C@@H](C)O)NC(=O)[C@H](C(C)C)NC(=O)[C@H](CC3CCCCC3)NC(=O)[C@H](CCN)NC(=O)[C@@H](CC(C)C)NC(=O)[C@H](CCCN)NC(=O)[C@H](Cc3ccc(O)cc3)NC(=O)[C@H](Cc3ccc(-c4ccccc4)cc3)NC(=O)[C@H](Cc3ccc(O)cc3)NC2=O)c1 [Compound 2726] ({CH2CO}-RY(Carboxymethyl)D[Phe(3-Me)]Y[Bip]Y[Orn][dL][Dab][Cha]VTC[Dab][Aun]-OH; thioether N-14) | 24.1
Cc1cccc(C[C@@H]2NC(=O)[C@H](CC(=O)O)NC(=O)[C@H](Cc3ccc(OCC(=O)O)cc3)NC(=O)[C@H](CN)NC(=O)CSC[C@@H](C(=O)N[C@@H](CCN)C(=O)NCCOCCOCC(=O)NCCCCCCCCCCC(=O)O)NC(=O)[C@H](CCCN)NC(=O)[C@H](C(C)C)NC(=O)[C@H](CC3CCCCC3)NC(=O)[C@H](CCN)NC(=O)[C@@H](CC(C)C)NC(=O)[C@H](CCCN)NC(=O)[C@H](Cc3ccc(O)cc3)NC(=O)[C@H](Cc3ccc(-c4ccccc4)cc3)NC(=O)[C@H](C(C)C)NC2=O)c1 [Compound 2588] ({CH2CO}-[Dap]Y(Carboxymethyl)D[Phe(3-Me)]V[Bip]Y[Orn][dL][Dab][Cha]V[Orn]C[Dab][AEEA][Aun]-OH; thioether N-14) | 5.3
COC[C@@H]1NC(=O)CSC[C@@H](C(=O)N[C@@H](CCN)C(=O)NCCOCCOCC(=O)NCCCCCCCCCCC(=O)O)NC(=O)[C@H](CO)NC(=O)[C@H](C(C)(C)O)NC(=O)[C@H](CC2CCCCC2)NC(=O)[C@H](CCN)NC(=O)[C@@H](CC(C)C)NC(=O)[C@H](CCCN)NC(=O)[C@H](Cc2ccc(OCC(=O)O)cc2)NC(=O)[C@H](Cc2ccc(-c3ccccc3)cc2)NC(=O)[C@H](Cc2ccc(OCC(=O)O)cc2)NC(=O)[C@H](Cc2cccc(C)c2)NC(=O)[C@H](CC(=O)O)NC(=O)[C@H](Cc2ccc(OCC(=O)O)cc2)NC1=O [Compound 2239] ({CH2CO}-S(Me)Y(Carboxymethyl)D[Phe(3-Me)]Y(Carboxymethyl)[Bip]Y(Carboxymethyl)[Orn][dL][Dab][Cha][Val(3-OH)]SC[Dab][AEEA][Aun]-OH; thioether N-14) | 1.6
C#CC[C@H](NC(=O)COCCOCCNC(=O)[C@H](CCCN)NC(=O)[C@@H]1CSCC(=O)N[C@@H](Cc2ccncc2)C(=O)N[C@@H](Cc2ccc(OCC(=O)O)cc2)C(=O)N[C@@H](CC(=O)O)C(=O)N[C@@H](Cc2c[nH]c3ccccc23)C(=O)N[C@@H](C(C)C)C(=O)N[C@@H](Cc2ccc(-c3ccccc3)cc2)C(=O)N[C@@H]([C@@H](C)CC)C(=O)N[C@@H](CCCN)C(=O)N[C@H](CC(C)C)C(=O)N[C@@H](CCN)C(=O)N[C@@H](CC(C)C)C(=O)N[C@@H](C(C)C)C(=O)N[C@@H]([C@@H](C)O)C(=O)N1)C(=O)N[C@@H](Cc1c[nH]cn1)C(=O)NCCCCCCCCCCC(=O)O [Compound 1204] ({CH2CO}-[4Pal]Y(Carboxymethyl)DWV[Bip]I[Orn][dL][Dab]LVTC[Orn][AEEA][Pra]H[Aun]-OH; thioether N-14) | 9.2
Cc1cccc(C[C@@H]2NC(=O)[C@H](CC(=O)O)NC(=O)[C@H](Cc3ccc(OCC(=O)O)cc3)NC(=O)[C@H](CCCNC(=N)N)NC(=O)CSC[C@@H](C(=O)N[C@@H](CCN)C(=O)NCCCCCCCCCCC(=O)O)NC(=O)[C@H](CO)NC(=O)[C@H](C(C)(C)O)NC(=O)[C@H](CC3CCCCC3)NC(=O)[C@H](CCN)NC(=O)[C@@H](CC(C)C)NC(=O)[C@H](CCCN)NC(=O)[C@H](Cc3ccc(OCC(=O)O)cc3)NC(=O)[C@H](Cc3ccc(-c4ccccc4)cc3)NC(=O)[C@H](Cc3ccc(O)cc3)NC2=O)c1 [Compound 2111] ({CH2CO}-RY(Carboxymethyl)D[Phe(3-Me)]Y[Bip]Y(Carboxymethyl)[Orn][dL][Dab][Cha][Val(3-OH)]SC[Dab][Aun]-OH; thioether N-14) | 6.4
Cc1cccc(C[C@@H]2NC(=O)[C@H](CC(=O)O)NC(=O)[C@H](Cc3ccc(OCC(=O)O)cc3)NC(=O)[C@H](CCCNC(=N)N)NC(=O)CSC[C@@H](C(=O)N[C@@H](CCN)C(=O)NCCCCCCCCCCC(=O)O)NC(=O)[C@H](C(C)(C)CCN)NC(=O)C(C(C)C)NC(=O)[C@H](CC3CCCCC3)NC(=O)[C@H](CCN)NC(=O)[C@@H](CC(C)C)NC(=O)[C@H](CCCN)NC(=O)[C@H](Cc3ccc(OCC(=O)O)cc3)NC(=O)[C@H](Cc3ccc(-c4ccccc4)cc3)NC(=O)[C@H](Cc3ccc(O)cc3)NC2=O)c1 (stereo partly drawn) [Compound 2118] ({CH2CO}-RY(Carboxymethyl)D[Phe(3-Me)]Y[Bip]Y(Carboxymethyl)[Orn][dL][Dab][Cha][ξV][X5]C[Dab][Aun]-OH; thioether N-14) | 126

More lines, now with the values ahead:

IC50 [nM] | SMILES
26.6 | Cc1cccc(C[C@@H]2NC(=O)[C@H](CC(=O)O)NC(=O)[C@H](Cc3ccc(C(=O)O)cc3)NC(=O)[C@H](Cc3ccncc3)NC(=O)CSC[C@@H](C(=O)N[C@@H](CCN)C(=O)NCCOCCOCC(=O)NCCCCCCCCCCC(=O)O)NC(=O)[C@H](CO)NC(=O)[C@H](C(C)(C)O)NC(=O)[C@H](CC3CCCCC3)NC(=O)[C@H](CCN)NC(=O)[C@@H](CC(C)C)NC(=O)[C@H](CCCN)NC(=O)[C@H](CCC(N)=O)NC(=O)[C@H](Cc3ccc(-c4ccccc4)cc3)NC(=O)[C@H](Cc3ccc(C(N)=O)cc3)NC2=O)c1 [Compound 3778] ({CH2CO}-[4Pal][Phe(4-COOH)]D[Phe(3-Me)][Phe(4-CONH2)][Bip]Q[Orn][dL][Dab][Cha][Val(3-OH)]SC[Dab][AEEA][Aun]-OH; thioether N-14)
11.4 | Cc1cccc(C[C@@H]2NC(=O)[C@H](CC(=O)O)NC(=O)[C@H](Cc3ccc(OCC(=O)O)cc3)NC(=O)[C@H](CN)NC(=O)CSC[C@@H](C(=O)N[C@@H](CCN)C(=O)NCCCCCCCCCCC(=O)O)NC(=O)[C@H](Cc3cnc[nH]3)NC(=O)[C@H](C(C)O)NC(=O)[C@H](CC3CCCCC3)NC(=O)[C@H](CCN)NC(=O)[C@@H](CC(C)C)NC(=O)[C@H](CCCN)NC(=O)[C@H](Cc3ccc(OCC(=O)O)cc3)NC(=O)[C@H](Cc3ccc(-c4ccccc4)cc3)NC(=O)[C@H](Cc3ccc(C(=O)O)cc3)NC2=O)c1 (stereo partly drawn) [Compound 3708] ({CH2CO}-[Dap]Y(Carboxymethyl)D[Phe(3-Me)][Phe(4-COOH)][Bip]Y(Carboxymethyl)[Orn][dL][Dab][Cha][Thr(3ξ)]HC[Dab][Aun]-OH; thioether N-14)
37.4 | Cc1cccc(C[C@@H]2NC(=O)[C@H](CC(=O)O)NC(=O)[C@H](Cc3ccc(OCC(=O)O)cc3)NC(=O)[C@H](CCCNC(=N)N)NC(=O)CSC[C@@H](C(=O)N[C@@H](CCN)C(=O)NCCCCCCCCCCC(=O)O)NC(=O)[C@H](C(C)O)NC(=O)[C@H](C(C)C)NC(=O)[C@H](CC3CCCCC3)NC(=O)[C@H](CCN)NC(=O)[C@@H](CC(C)C)NC(=O)[C@H](CCCN)NC(=O)[C@H](Cc3ccc(O)cc3)NC(=O)[C@H](Cc3ccc(-c4ccccc4)cc3)NC(=O)[C@H](C(C)C)NC2=O)c1 (stereo partly drawn) [Compound 3457] ({CH2CO}-RY(Carboxymethyl)D[Phe(3-Me)]V[Bip]Y[Orn][dL][Dab][Cha]V[Thr(3ξ)]C[Dab][Aun]-OH; thioether N-14)
9.4 | Cc1cccc(C[C@@H]2NC(=O)[C@H](CC(=O)O)NC(=O)[C@H](Cc3ccc(OCC(=O)O)cc3)NC(=O)[C@H](CCCNC(=N)N)NC(=O)CSC[C@@H](C(=O)N[C@@H](CCN)C(=O)NCCCCCCCCCCC(=O)O)NC(=O)[C@H](C(C)O)NC(=O)[C@H](C(C)C)NC(=O)[C@H](CC3CCCCC3)NC(=O)[C@H](CCN)NC(=O)[C@@H](CC(C)C)NC(=O)[C@H](CCCNC(N)=O)NC(=O)[C@H](Cc3ccc(OCC(=O)O)cc3)NC(=O)[C@H](Cc3ccc(-c4ccccc4)cc3)NC(=O)[C@H](Cc3ccc(O)cc3)NC2=O)c1 (stereo partly drawn) [Compound 3371] ({CH2CO}-RY(Carboxymethyl)D[Phe(3-Me)]Y[Bip]Y(Carboxymethyl)[Cit][dL][Dab][Cha]V[Thr(3ξ)]C[Dab][Aun]-OH; thioether N-14)
70.6 | COC[C@@H]1NC(=O)CSC[C@@H](C(=O)N[C@@H](CCN)C(=O)NCCOCCOCCOCCOCCC(=O)NCCCCCCCCCCCCC(=O)O)NC(=O)[C@H](CO)NC(=O)[C@H](C(C)(C)O)NC(=O)[C@H](CC2CCCCC2)NC(=O)[C@H](CCN)NC(=O)[C@@H](CC(C)C)NC(=O)[C@H](CCCN)NC(=O)[C@H](Cc2ccc(C(=O)O)cc2)NC(=O)[C@H](Cc2ccc(-c3ccccc3)cc2)NC(=O)[C@H](Cc2ccc(C(=O)O)cc2)NC(=O)[C@H](Cc2cccc(C(F)(F)F)c2)NC(=O)[C@H](CC(=O)O)NC(=O)[C@H](Cc2ccc(OCC(=O)O)cc2)NC1=O [Compound 2905] ({CH2CO}-S(Me)Y(Carboxymethyl)D[Phe(3-CF3)][Phe(4-COOH)][Bip][Phe(4-COOH)][Orn][dL][Dab][Cha][Val(3-OH)]SC[Dab][PEG4]-{NH(CH2)12COOH}; thioether N-14)
